# Results taken from US6482921B1, “Uridyl peptide antibiotic (UPA) derivatives, their synthesis and use” (Essential Therapeutics, Inc., priority 1999, dated 2002).
# What was measured:
# Format in all cases: cell-based
# [1] = system: Pseudomonas aeruginosa PAM 1020; experiment: MIC broth microdilution, P. aeruginosa PAM 1020 (wild type); conditions: P. aeruginosa PAM 1020
# [2] = system: Pseudomonas aeruginosa PAM 1154; experiment: MIC broth microdilution, P. aeruginosa PAM 1154 (OprM::Hg); conditions: P. aeruginosa PAM 1154 OprM::Hg
# [3] = system: Pseudomonas aeruginosa PAM 1135; experiment: MIC broth microdilution, P. aeruginosa PAM 1135 (high level UPA resistance); conditions: P. aeruginosa PAM 1135 UPA1^r
# [4] = system: Pseudomonas aeruginosa PAM 1323; experiment: MIC broth microdilution, P. aeruginosa PAM 1323 (medium level UPA resistance)
# Escherichia Coli MC 4100 = experiment: MIC broth microdilution, E. coli MC 4100 (wild type); conditions: E. coli MC 4100
# [5] = system: Escherichia Coli MC 4100 AcrAB; experiment: MIC broth microdilution, E. coli MC 4100 AcrAB (ΔAcrAB); conditions: E. coli AcrAB
# [6] = system: Escherichia Coli MC 4100 AcrAB UPA3r; experiment: MIC broth microdilution, E. coli MC 4100 AcrAB UPA3r (ΔAcrAB, UPA resistant); conditions: E. coli AcrAB UPA3^r
# [7] = system: Staphylococcus aureus ATCC 29213; experiment: MIC broth microdilution, S. aureus ATCC 29213 (wild type); conditions: S. aureus ATCC 29213
# [8] = system: Staphylococcus aureus 8325-4; experiment: MIC broth microdilution, S. aureus 8325-4 (wild type); conditions: S. aureus 8325-4
# [9] = system: Pasteurella multocida pm002; experiment: MIC broth microdilution, P. multocida pm002 (wild type)
Structure (SMILES),MIC (μg/ml) Broth microdilution [1] [µg/mL],MIC (μg/ml) Broth microdilution [2] [µg/mL],MIC (μg/ml) Broth microdilution [3] [µg/mL],MIC (μg/ml) Broth microdilution [4] [µg/mL],MIC (μg/ml) Broth microdilution (Escherichia Coli MC 4100) [µg/mL],MIC (μg/ml) Broth microdilution [5] [µg/mL],MIC (μg/ml) Broth microdilution [6] [µg/mL],MIC (μg/ml) Broth microdilution [7] [µg/mL],MIC (μg/ml) Broth microdilution [8] [µg/mL],MIC (μg/ml) Broth microdilution [9] [µg/mL]
"CC(C(NC(=O)C(Cc1ccccc1)NC(=O)NC(Cc1c[nH]c2ccccc12)C(=O)O)C(=O)NCC1CC(O)C(n2ccc(=O)[nH]c2=O)O1)N(C)C(=O)CCCCN [Compound 123, 1-[5′-[(2S,3S)-N^3-(5-Aminopentanoyl)-N^2-[N-[[(1S)-1-carboxy-2-indol-3-ylethyl]carbamoyl]-L-phenylalanyl]-N^3-methyl-2,3-diaminobutyramido]-3′,5′-dideoxy-α-L-arabinofuranosyl]uracil]",32,16,256,256,512,4,512,>512,>512,>512
"CC(C(NC(=O)C(Cc1ccc(F)cc1)NC(=O)NC(Cc1ccc(O)cc1)C(=O)O)C(=O)NCC1CC(O)C(n2ccc(=O)[nH]c2=O)O1)N(C)C(=O)CCCCN [Compound 124, 1-[5′-[(2S,3S)-N^3-(5-Aminopentanoyl)-N^2-[N-[[(1S)-1-carboxy-4-hydroxyphenethyl]carbamoyl]-L-4-fluorophenylalanyl]-N^3-methyl-2,3-diaminobutyramido]-3′,5′-dideoxy-α-L-arabinofuranosyl]uracil]",512,128,>512,>512,256,2,128,>512,>512,>512
"CC(N)C(=O)N(C)C(C)C(NC(=O)C(Cc1ccccc1)NC(=O)NC(Cc1cccs1)C(=O)O)C(=O)NCC1CC(O)C(n2ccc(=O)[nH]c2=O)O1 [Compound 125, 1-[5′-[(2S,3S)-N^3-L-Alanyl-N^2-[N-[[(1S)-1-carboxy-2-(2-thienyl)ethyl]carbamoyl]-L-phenylalanyl]-N^3-methyl-2,3-diaminobutyramidol-3′,5′-dideoxy-α-L-arabinofuranosyl]uracil]",64,8,>512,>512,>512,8,64,>512,>512,>512
"CC(N)C(=O)N(C)C(C)C(NC(=O)C(Cc1ccc([N+](=O)[O-])cc1)NC(=O)NC(Cc1ccc(O)cc1)C(=O)O)C(=O)NCC1CC(O)C(n2ccc(=O)[nH]c2=O)O1 [Compound 126, 1-[5′-[(2S,3S)-N^3-L-Alanyl-N^2-[N-[[(1S)-1-carboxy-4-hydroxyphenethyl]carbamoyl]-L-4-nitrophenylalanine-N^3-methyl-2,3-diaminobutyramido]-3′,5′-dideoxy-α-L-arabinofuranosyl]uracil]",128,16,>512,>512,16,<1,4,512,256,512
"CNC(C)C(NC(=O)C(Cc1ccc(F)cc1)NC(=O)NC(Cc1ccc(O)cc1)C(=O)O)C(=O)NCC1CC(O)C(n2ccc(=O)[nH]c2=O)O1 [Compound 127, 1-[5′-[(2S,3S)-N^2-[N-[[(1S)-1-carboxy-4-hydroxyphenethyl)carbamoyl]-L-4-fluorophenylalanyl]-N^3-methyl-2,3-diaminobutyramidol-3′,5′-dideoxy-α-L-arabinofuranosyl]uracil]",>512,512,>512,>512,>512,4,32,>512,>512,>512
"CC(C(NC(=O)C(Cc1ccc(F)cc1)NC(=O)NC(Cc1ccc(O)cc1)C(=O)O)C(=O)NCC1CC(O)C(n2ccc(=O)[nH]c2=O)O1)N(C)C(=O)CN [Compound 129, 1-[5′-[(2S,3S)-N^2-[N-[[(1S)-1-Carboxy-4-hydroxyphenethyl)-L-4-fluorophenylalanyl]-N^3-glycyl-N^3-methyl-2,3-diaminobutyramido]-3′,5′-dideoxy-α-L-arabinofuranosyl]uracil]",32,8,>512,>512,8,<1,2,>512,512,256
"CC(C(NC(=O)C(Cc1ccc(F)cc1)NC(=O)NC(Cc1ccc(O)cc1)C(=O)O)C(=O)NCC1CC(O)C(n2ccc(=O)[nH]c2=O)O1)N(C)C(=O)c1cccc(N)c1 [Compound 131, 1-[5′-[(2S,3S)-N^3-3-Aminobenzoyl-N^2-[N-[[(1S)-1-carboxy-4-hydroxyphenethyl]carbamoyl]-L-4-fluorophenylalanyl]-N^3-methyl-2,3-diaminobutyramido]-3′,5′-dideoxy-α-Larabinofuranosyl]uracil]",512,512,>512,>512,>512,16,512,512,>512,>512
"CC(N)C(=O)N(C)C(C)C(NC(=O)C(Cc1cscn1)NC(=O)NC(Cc1ccc(O)cc1)C(=O)O)C(=O)NCC1CC(O)C(n2ccc(=O)[nH]c2=O)O1 [Compound 132, 1-[5′-[(2S,3S)-N^3-L-Alanyl-N^2-[N-[[(1S)-1-carboxy-4-hydroxyphenethyl]carbamoyl]-L-thiazolylalanyl]-N^3-methyl-2,3-diaminobutyramido]-3′,5′-dideoxy-α-L-arabinofuranosyl]uracil]",128,32,>512,>512,256,8,32,>512,>512,>512
"CC(N)C(=O)N(C)C(C)C(NC(=O)C(CCc1ccccc1)NC(=O)NC(Cc1ccc(O)cc1)C(=O)O)C(=O)NCC1CC(O)C(n2ccc(=O)[nH]c2=O)O1 [Compound 137, 1-[5′-[(2S,3S)-N^3-L-Alanyl-N^2-[N-[[(1S)-1-carboxy-4-hydroxyphenethyl]carbamoyl]-L-homophenylalanyl]-N^3-methyl-2,3-diaminobutyramido]-3′,5′-dideoxy-α-L-arabinofuranosyl]uracil]",64,128,>512,>512,512,16,256,>512,>512,>512
"CC(N)C(=O)N(C)C(C)C(NC(=O)C(CCc1ccccc1)NC(=O)NC(Cc1c[nH]c2ccccc12)C(=O)O)C(=O)NCC1CC(O)C(n2ccc(=O)[nH]c2=O)O1 [Compound 138, 1-[5′-[(2S,3S)-N^3-L-Alanyl-N^2-[N-[[(1S)-1-carboxy-2-indol-3-ylethyl]carbamoyl]-L-homophenylalanyl]-N^3-methyl-2,3-diaminobutyramido]-3′,5′-dideoxy-α-L-arabinofuranosyl]uracil]",32,8,>512,>512,512,2,256,>512,>512,>512
